Results taken from PubChem BioAssay AID192 (DTP/NCI, 2004).
Values joined by “and” are separate entries in the source; they are usually repeats but may differ in a detail not shown here. Identical values can stand only once. Inconclusive results and toxic doses are left out. Square brackets hold non-standard residues; d marks the D form. Peptide text beside a SMILES is read from it. ξ: configuration not given here. ξLac(3-iPr) = CC(C)CC(O)C(=O)O; NMeV = CN[CH](C(=O)O)C(C)C; NMeA = CN[CH](C)C(=O)O; βAla = NCCC(=O)O

Tested on: BDF1 mice, B16 melanoma ip, median survival T/C
Experiment: NCI In Vivo Anticancer Drug Screen. Data for tumor model B16 Melanoma (intraperitoneal) in B6D2F1 (BDF1) mice
Settings: endpoint: median survival time, higher = longer survival
Outline: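 In this screen, activity was judged from survival or tumor size in treated versus vehicle-treated tumor-bearing mice, reported as T/C.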

[1] = dose: 6.25 mg/kg/injection, schedule: Q01DX009 (ip), vehicle: saline with Tween-80
[2] = dose: 12.5 mg/kg/injection, schedule: Q01DX009 (ip), vehicle: saline with Tween-80
[3] = dose: 25.0 mg/kg/injection, schedule: Q01DX009 (ip), vehicle: saline with Tween-80
[4] = dose: 50.0 mg/kg/injection, schedule: Q01DX009 (ip), vehicle: saline with Tween-80
[5] = dose: 100.0 mg/kg/injection, schedule: Q01DX009 (ip), vehicle: saline with Tween-80
[6] = dose: 200.0 mg/kg/injection, schedule: Q01DX009 (ip), vehicle: saline with Tween-80
[7] = dose: 6.25 mg/kg/injection, schedule: Q01DX009 (ip), vehicle: Klucel (hydroxypropylcellulose) (HPC)
[8] = dose: 12.5 mg/kg/injection, schedule: Q01DX009 (ip), vehicle: Klucel (hydroxypropylcellulose) (HPC)
[9] = dose: 25.0 mg/kg/injection, schedule: Q04DX003 (ip), vehicle: saline with Tween-80
[10] = dose: 50.0 mg/kg/injection, schedule: Q04DX003 (ip), vehicle: saline with Tween-80
[11] = dose: 1.25 mg/kg/injection, schedule: Q01DX009 (ip), vehicle: saline
[12] = dose: 3.12 mg/kg/injection, schedule: Q01DX009 (ip), vehicle: saline
[13] = dose: 6.25 mg/kg/injection, schedule: Q01DX009 (ip), vehicle: saline
[14] = dose: 12.5 mg/kg/injection, schedule: Q01DX009 (ip), vehicle: saline
[15] = dose: 25.0 mg/kg/injection, schedule: Q01DX009 (ip), vehicle: saline
[16] = dose: 50.0 mg/kg/injection, schedule: Q01DX009 (ip), vehicle: saline
[17] = dose: 100.0 mg/kg/injection, schedule: Q04DX003 (ip), vehicle: saline with Tween-80
[18] = dose: 100.0 mg/kg/injection, schedule: Q01DX009 (ip), vehicle: Klucel (hydroxypropylcellulose) (HPC)
[19] = dose: 200.0 mg/kg/injection, schedule: Q01DX009 (ip), vehicle: Klucel (hydroxypropylcellulose) (HPC)
[20] = dose: 400.0 mg/kg/injection, schedule: Q01DX009 (ip), vehicle: Klucel (hydroxypropylcellulose) (HPC)

With `COc1ccccc1C(C#N)N1CCCN(C(C#N)c2ccccc2OC)C1c1cc(Cl)cc(Cl)c1O` (centres undefined) the T/C [1] was 104 % of control, the T/C [2] was 101 % of control and the T/C [3] was 103 % of control. For the same molecule, the T/C [4] was 91 % of control and 124 % of control.

`O=C(O)CC(=O)O.[NH-]C1CCCCC1[NH-].[Pt+2]` (centres undefined) was tested, and the T/C (dose: 10.0 mg/kg/injection, schedule: Q01DX009 (ip), vehicle: dextrose) was 150 % of control, the T/C (dose: 12.5 mg/kg/injection, schedule: Q01DX009 (ip), vehicle: dextrose) was 196 % of control and the T/C (dose: 24.0 mg/kg/injection, schedule: Q01DX009 (ip), vehicle: other) was 150 % of control. The T/C (dose: 25.0 mg/kg/injection, schedule: Q01DX009 (ip), vehicle: dextrose) was 163 % of control.

In the case of `O=[N+]([O-])c1cccs1`, the T/C (dose: 25.0 mg/kg/injection, schedule: Q04DX003 (ip), vehicle: Klucel (hydroxypropylcellulose) (HPC)) is reported as 105 % of control, the T/C (dose: 50.0 mg/kg/injection, schedule: Q04DX003 (ip), vehicle: Klucel (hydroxypropylcellulose) (HPC)) is reported as 105 % of control and the T/C (dose: 100.0 mg/kg/injection, schedule: Q04DX003 (ip), vehicle: Klucel (hydroxypropylcellulose) (HPC)) is reported as 112 % of control.

With `CCCNCCN(CC)CC` the T/C [4] was 107 % of control, the T/C [5] was 100 % of control and the T/C [6] was 99 % of control.

`COc1cc(C(=O)O)c2c(c1C)OC(=O)c1c(C)cc(O)c(C=O)c1O2` was tested, and the T/C (dose: 1.39 mg/kg/injection, schedule: Q01DX009 (ip), vehicle: saline with Tween-80) was 97 % of control, the T/C (dose: 2.78 mg/kg/injection, schedule: Q01DX009 (ip), vehicle: saline with Tween-80) was 99 % of control and the T/C (dose: 5.56 mg/kg/injection, schedule: Q01DX009 (ip), vehicle: saline with Tween-80) was 110 % of control. For the same molecule, the T/C [7] was 111 % of control, the T/C (dose: 11.0 mg/kg/injection, schedule: Q01DX009 (ip), vehicle: saline with Tween-80) was 158 % of control and the T/C [8] was 117 % of control. For the same molecule, the T/C [2] was 150 % of control, the T/C (dose: 25.0 mg/kg/injection, schedule: Q01DX009 (ip), vehicle: Klucel (hydroxypropylcellulose) (HPC)) was 122 % of control and the T/C [3] was 160 % of control. For the same molecule, the T/C [9] was 113 % of control and the T/C [10] was 105 % of control.

In the case of `NC(=O)c1[nH]nc(C2OC(CO)C(O)C2O)c1O` (centres undefined), the T/C (dose: 0.08 mg/kg/injection, schedule: Q01DX009 (ip), vehicle: saline) is reported as 100 % of control, the T/C (dose: 0.12 mg/kg/injection, schedule: Q01DX009 (ip), vehicle: saline) is reported as 110 % of control and the T/C (dose: 0.16 mg/kg/injection, schedule: Q01DX009 (ip), vehicle: saline) is reported as 111 % of control. For the same molecule, the T/C (dose: 0.31 mg/kg/injection, schedule: Q01DX009 (ip), vehicle: saline) was 111 % of control, the T/C (dose: 0.5 mg/kg/injection, schedule: Q01DX009 (ip), vehicle: saline) was 115 % of control and the T/C (dose: 0.62 mg/kg/injection, schedule: Q01DX009 (ip), vehicle: saline) was 111 % of control. The T/C (dose: 0.67 mg/kg/injection, schedule: Q01DX009 (ip), vehicle: saline) was 123 % of control, the T/C [11] was 94 % of control and the T/C (dose: 2.16 mg/kg/injection, schedule: Q01DX004 (ip), vehicle: saline) was 113 % of control. For the same molecule, the T/C (dose: 3.6 mg/kg/injection, schedule: Q01DX004 (ip), vehicle: saline) was 112 % of control, the T/C (dose: 6.0 mg/kg/injection, schedule: Q01DX004 (ip), vehicle: saline) was 109 % of control and the T/C (dose: 10.0 mg/kg/injection, schedule: Q01DX004 (ip), vehicle: saline) was 44 % of control.

With `CC(CN1c2ccccc2Sc2cccnc21)N(C)C` (centres undefined) the T/C [12] was 97 % of control, the T/C [13] was 107 % of control and the T/C [14] was 112 % of control. For the same molecule, the T/C [15] was 109 % of control and the T/C [16] was 100 % of control.

With `C(=N/NC1=NCCN1)/c1c2ccccc2c(/C=N\NC2=NCCN2)c2ccccc12` the T/C (dose: 0.78 mg/kg/injection, schedule: Q01DX009 (ip), vehicle: saline) was 156 % of control, the T/C (dose: 1.56 mg/kg/injection, schedule: Q01DX009 (ip), vehicle: saline) was 181 % of control and the T/C [12] was 205 % of control. The T/C [13] was 225 % of control and the T/C [14] was 294 % of control.

With `CC12NC(=O)NC1(C)NC(=O)N2` (centres undefined) the T/C [17] was 100 % of control.

With `CC(C)COC(=O)c1ccc(NC(=O)Nc2ccccc2Cl)cc1` the T/C [2] was 100 % of control, the T/C [3] was 93 % of control and the T/C [4] was 97 % of control.

`CCC(C)C1NC(=O)C2CCCN2C(=O)C(CC(C)C)OC(=O)CCNC(=O)C(C)N(C)C(=O)C(C(C)C)N(C)C1=O` (centres undefined) (cyclo([ξLac(3-iPr)]PI[NMeV][NMeA][βAla]); configuration not given here) was tested, and the T/C [11] was 112 % of control, the T/C (dose: 2.5 mg/kg/injection, schedule: Q01DX009 (ip), vehicle: saline) was 111 % of control and the T/C (dose: 5.0 mg/kg/injection, schedule: Q01DX009 (ip), vehicle: saline) was 105 % of control. The T/C (dose: 10.0 mg/kg/injection, schedule: Q01DX009 (ip), vehicle: saline) was 107 % of control.

`OC1(C#CC2(O)c3ccccc3-c3ccccc32)c2ccccc2-c2ccccc21` was tested, and the T/C [18] was 122 % of control, the T/C [19] was 97 % of control and the T/C [20] was 94 % of control.

For `C=CCN1/C(=C/C=C\c2sc3ccccc3[n+]2CC=C)Sc2ccccc21`, the T/C (dose: 0.06 mg/kg/injection, schedule: Q01DX009 (ip), vehicle: saline with Tween-80) was 100 % of control, the T/C (dose: 0.13 mg/kg/injection, schedule: Q01DX009 (ip), vehicle: saline with Tween-80) was 97 % of control and the T/C (dose: 0.25 mg/kg/injection, schedule: Q01DX009 (ip), vehicle: saline with Tween-80) was 97 % of control. For the same molecule, the T/C (dose: 0.5 mg/kg/injection, schedule: Q01DX009 (ip), vehicle: saline with Tween-80) was 95 % of control.

`COc1cc(OC)c(NC(=O)c2ccccc2Cl)cc1Cl` was tested, and the T/C [18] was 97 % of control, the T/C [19] was 102 % of control and the T/C [20] was 102 % of control.

`Cc1ccc2c(c1)C(=O)N(CC[P+](c1ccccc1)(c1ccccc1)c1ccccc1)C2=O` was tested, and the T/C (dose: 0.78 mg/kg/injection, schedule: Q01DX009 (ip), vehicle: Klucel (hydroxypropylcellulose) (HPC)) was 93 % of control, the T/C (dose: 1.56 mg/kg/injection, schedule: Q01DX009 (ip), vehicle: Klucel (hydroxypropylcellulose) (HPC)) was 108 % of control and the T/C (dose: 3.12 mg/kg/injection, schedule: Q01DX009 (ip), vehicle: Klucel (hydroxypropylcellulose) (HPC)) was 103 % of control. The T/C [7] was 103 % of control and the T/C [8] was 95 % of control.

In the case of `COC(=O)C1(N)CCCC1`, the T/C [13] is reported as 105 % of control and 110 % of control, the T/C [14] is reported as 108 % of control and 109 % of control and 122 % of control and the T/C [15] is reported as 121 % of control and 123 % of control.

For `CC(=O)Nc1cc2c(cc1Br)-c1ccccc1C2O` (centres undefined), the T/C [2] was 92 % of control, the T/C (dose: 12.5 mg/kg/injection, schedule: Q04DX003 (ip), vehicle: saline with Tween-80) was 92 % of control and the T/C [3] was 102 % of control. The T/C [9] was 100 % of control, the T/C [4] was 89 % of control and the T/C [10] was 95 % of control. The T/C [17] was 90 % of control.

`Cc1cc(C)[c]([Hg][Cl])c(C)c1` was tested, and the T/C (dose: 1.5 mg/kg/injection, schedule: Q01DX009 (ip), vehicle: saline with Tween-80) was 110 % of control, the T/C (dose: 3.0 mg/kg/injection, schedule: Q01DX009 (ip), vehicle: saline with Tween-80) was 98 % of control and the T/C (dose: 6.0 mg/kg/injection, schedule: Q01DX009 (ip), vehicle: saline with Tween-80) was 99 % of control. For the same molecule, the T/C [1] was 88 % of control.

For `CC(C(=O)N1c2ccccc2Sc2ccccc21)[N+]1(C)CCCC1` (centres undefined), the T/C [12] was 93 % of control, the T/C [13] was 93 % of control and the T/C [14] was 95 % of control. For the same molecule, the T/C [15] was 91 % of control and the T/C [16] was 100 % of control.

For `NC(=O)NC1CCCC1`, the T/C [5] was 106 % of control, the T/C [6] was 112 % of control and the T/C (dose: 400.0 mg/kg/injection, schedule: Q01DX009 (ip), vehicle: saline with Tween-80) was 102 % of control.

With `CCC(N)CC` the T/C [15] was 102 % of control and the T/C [16] was 117 % of control.
